We go through two molecules from publication PMC3408863 (European journal of medicinal chemistry, 2012).

One test concerns the target Bovine Chymotrypsin (Bos taurus, UniProt P00766). Description: Chromogenic substrate hydrolysis assay, chymotrypsin. It counts as biochemical. Conditions: FXa over chymotrypsin.
The next test concerns the target T1, Bovine Trypsin (Bos taurus, UniProt P00760).
T1 sequence (P00760 24-246): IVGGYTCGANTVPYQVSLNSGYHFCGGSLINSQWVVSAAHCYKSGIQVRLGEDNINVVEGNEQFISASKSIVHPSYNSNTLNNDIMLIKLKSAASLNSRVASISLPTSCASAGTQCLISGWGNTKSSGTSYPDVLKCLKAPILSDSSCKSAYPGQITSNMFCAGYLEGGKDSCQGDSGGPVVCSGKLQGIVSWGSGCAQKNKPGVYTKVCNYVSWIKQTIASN
Description: Chromogenic substrate hydrolysis assay, trypsin. It is filed as biochemical.

Another test has as its target Human FVIIa (Homo sapiens, UniProt P08709). The test is described as follows: Chromogenic substrate hydrolysis assay, FVIIa. It is filed as biochemical. The following applies: FXa over Human FVIIa.
Another test addresses Human FIIa (Homo sapiens, UniProt P00734). The test is described as follows: Chromogenic substrate hydrolysis assay, FIIa. It is filed as biochemical. The following applies: FXa over Human FIIa.
Another test concerns the target T2, Human FXIIa (Homo sapiens, UniProt P00748).
T2 sequence (P00748 373-615 limits assumed): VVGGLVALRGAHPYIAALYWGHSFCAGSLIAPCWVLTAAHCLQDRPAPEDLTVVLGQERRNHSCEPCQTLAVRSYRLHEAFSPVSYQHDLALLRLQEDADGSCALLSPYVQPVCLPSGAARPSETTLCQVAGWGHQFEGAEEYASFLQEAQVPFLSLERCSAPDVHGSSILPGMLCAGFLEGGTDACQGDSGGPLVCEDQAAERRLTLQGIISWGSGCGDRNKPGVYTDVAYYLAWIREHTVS
T2 sequence (P00748 20-372 limits assumed): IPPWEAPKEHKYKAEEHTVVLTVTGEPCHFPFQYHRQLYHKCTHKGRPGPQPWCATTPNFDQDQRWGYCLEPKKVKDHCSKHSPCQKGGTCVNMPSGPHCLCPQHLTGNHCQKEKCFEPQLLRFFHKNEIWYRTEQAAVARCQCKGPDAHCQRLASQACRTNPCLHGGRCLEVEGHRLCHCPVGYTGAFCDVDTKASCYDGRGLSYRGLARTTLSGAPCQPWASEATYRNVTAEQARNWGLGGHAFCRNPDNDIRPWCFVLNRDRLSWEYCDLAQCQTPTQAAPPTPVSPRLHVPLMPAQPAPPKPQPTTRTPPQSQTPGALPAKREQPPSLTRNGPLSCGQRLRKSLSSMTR
The test is described as follows: Chromogenic substrate hydrolysis assay, FXIIa. The following applies: FXa over Human FXIIa. It is filed as biochemical.

The next test deals with human FXa (Homo sapiens, UniProt P00742). Description: Direct inhibition of FXa, chromogenic substrate hydrolysis assay. It is filed as biochemical.
In another test the target is Human FIXa (Homo sapiens, UniProt P00740). Description: Chromogenic substrate hydrolysis assay, FIXa. It counts as biochemical. Conditions: FXa over Human FIXa.
For the next test, the target named is Human FXIa (Homo sapiens, UniProt P03951). The test is described as follows: Chromogenic substrate hydrolysis assay, FXIa. It counts as biochemical. The following applies: FXa over Human FXIa.
The next test has as its system human plasma. Conditions: comparators in clinical trials; cited from earlier work.

pIC50, pKi: −log10 of the molar value. Structures can show the parent of a compound that is named as a salt.

Chain of human FXa (P00742 235-488 limits assumed): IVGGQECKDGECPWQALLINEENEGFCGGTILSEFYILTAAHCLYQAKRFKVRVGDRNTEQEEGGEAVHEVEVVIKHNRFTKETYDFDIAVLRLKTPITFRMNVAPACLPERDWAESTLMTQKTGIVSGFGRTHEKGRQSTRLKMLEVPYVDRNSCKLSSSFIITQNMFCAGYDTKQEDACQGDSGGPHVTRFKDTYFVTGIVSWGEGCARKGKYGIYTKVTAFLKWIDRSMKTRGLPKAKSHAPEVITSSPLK
Chain of human FXa (P00742 41-179 limits assumed): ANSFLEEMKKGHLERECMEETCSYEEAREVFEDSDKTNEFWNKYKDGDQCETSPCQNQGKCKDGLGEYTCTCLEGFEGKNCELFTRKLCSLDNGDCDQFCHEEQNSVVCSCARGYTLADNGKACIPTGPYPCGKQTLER
Chain of Human FIXa (P00740 227-461 limits assumed): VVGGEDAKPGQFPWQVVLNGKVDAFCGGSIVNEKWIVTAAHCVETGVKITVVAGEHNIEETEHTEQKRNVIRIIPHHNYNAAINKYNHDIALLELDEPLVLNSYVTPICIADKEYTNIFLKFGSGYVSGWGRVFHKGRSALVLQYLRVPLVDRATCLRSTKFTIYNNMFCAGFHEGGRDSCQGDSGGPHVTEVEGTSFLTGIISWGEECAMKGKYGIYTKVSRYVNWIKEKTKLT
Chain of Human FIXa (P00740 47-191 limits assumed): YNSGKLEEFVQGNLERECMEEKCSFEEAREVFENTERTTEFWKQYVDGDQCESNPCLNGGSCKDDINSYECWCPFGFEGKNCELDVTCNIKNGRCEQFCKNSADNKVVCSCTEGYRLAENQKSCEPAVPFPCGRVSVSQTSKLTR
Chain of Human FXIa (P03951 388-625 limits assumed): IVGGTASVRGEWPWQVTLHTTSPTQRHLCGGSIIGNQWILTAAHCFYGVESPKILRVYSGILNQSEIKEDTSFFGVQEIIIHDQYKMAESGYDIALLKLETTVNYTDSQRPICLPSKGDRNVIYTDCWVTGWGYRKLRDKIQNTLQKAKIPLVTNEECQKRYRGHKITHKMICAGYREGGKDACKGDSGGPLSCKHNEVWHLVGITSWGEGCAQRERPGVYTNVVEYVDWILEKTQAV
Chain of Human FXIa (P03951 19-387 limits assumed): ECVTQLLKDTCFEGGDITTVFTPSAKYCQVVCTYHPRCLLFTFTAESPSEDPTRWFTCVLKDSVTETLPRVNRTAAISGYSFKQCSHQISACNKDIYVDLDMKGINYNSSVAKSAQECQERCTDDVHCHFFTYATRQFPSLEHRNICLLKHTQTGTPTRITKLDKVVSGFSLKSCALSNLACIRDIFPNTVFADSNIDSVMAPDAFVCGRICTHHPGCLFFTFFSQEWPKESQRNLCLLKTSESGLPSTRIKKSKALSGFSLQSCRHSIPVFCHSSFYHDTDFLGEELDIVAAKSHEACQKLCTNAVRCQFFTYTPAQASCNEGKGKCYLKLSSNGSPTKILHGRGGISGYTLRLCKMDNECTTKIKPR
Chain of Human FVIIa (P08709 213-466 limits assumed): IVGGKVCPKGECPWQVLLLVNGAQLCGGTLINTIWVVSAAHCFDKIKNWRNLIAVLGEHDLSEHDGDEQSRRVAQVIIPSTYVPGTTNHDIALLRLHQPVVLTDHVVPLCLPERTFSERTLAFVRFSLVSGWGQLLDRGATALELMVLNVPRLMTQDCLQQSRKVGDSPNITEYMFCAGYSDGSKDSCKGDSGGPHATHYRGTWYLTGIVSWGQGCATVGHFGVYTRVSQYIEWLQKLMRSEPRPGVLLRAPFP
Chain of Human FVIIa (P08709 61-212 limits assumed): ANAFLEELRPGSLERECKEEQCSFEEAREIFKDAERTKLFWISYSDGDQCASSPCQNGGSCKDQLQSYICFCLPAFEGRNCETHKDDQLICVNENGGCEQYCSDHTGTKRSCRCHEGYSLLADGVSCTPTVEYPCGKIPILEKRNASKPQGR
Chain of Human FVIIa (P13726 33-295 partner): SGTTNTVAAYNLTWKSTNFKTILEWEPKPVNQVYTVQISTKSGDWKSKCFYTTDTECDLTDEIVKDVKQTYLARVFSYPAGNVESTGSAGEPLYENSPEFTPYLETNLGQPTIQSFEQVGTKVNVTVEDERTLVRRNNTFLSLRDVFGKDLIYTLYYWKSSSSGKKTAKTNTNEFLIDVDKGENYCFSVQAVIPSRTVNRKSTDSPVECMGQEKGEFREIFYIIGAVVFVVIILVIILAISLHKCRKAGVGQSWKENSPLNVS

Turning to `O=C(Nc1ccc(N2CCOCC2=O)cc1)[C@H]1Cc2ccccc2CN1C(=O)Cc1ccc(Cl)cc1` [Inhibitor 47, (R)-2-(2-(4-chlorophenyl)acetyl)-N-(4-(3-oxomorpholino)phenyl)-1,2,3,4-tetrahydro-isoquinoline-3-carboxamide], the selectivity against chymotrypsin at Bovine Chymotrypsin is given as not below 279 fold. This molecule also gave a pIC50 at Bovine Trypsin of less than 4.00. The “Selectivity Index” value on Bovine Trypsin (FXa over Bovine Trypsin) was more than 370; at Human FVIIa, more than 3703; at Human FIIa it was more than 1852; at Human FXIIa, more than 1852; at Human FIXa, more than 3703; at Human FXIa it was more than 1852. At Bovine Trypsin (FXa over trypsin), the selectivity against trypsin result was “at least 370 fold”. At human FXa, the pKi was 6.87. The “fold decrease in IC50 relative to inhibitor 13” value at human FXa (FXa inhibition, relative to 13 (IC50 = 16.4 μM)) is ~ 60 fold. For the same molecule, the “selectivity for FXa inhibition over other coagulation enzymes” value at human FXa (over FIIa, FVIIa, FIXa, FXIa, and FXIIa) is reported as “at least 1852 fold”.
Consider `CN(C)Cc1nccn1-c1ccc(NC(=O)c2cc(C(F)(F)F)nn2-c2ccc3onc(N)c3c2)c(F)c1` [razaxaban, 1-(3′-aminobenzisoxazol-5′-yl)-3-trifluoromethyl-N-[2-fluoro-4-[(2′-dimethylamino-methyl)imidazol-1-yl]phenyl]-1H-pyrazole-5-carboxyamide hydrochloride], for which, in the test with human plasma, the “PT, concentration doubling the clotting time” value is 3.8 µM.

For orientation: pIC50 means the IC50 on a negative log10 scale, so that one unit is a factor of ten. A lower pIC50 goes with a large IC50. A word on the pKi: it is −log10 of the Ki, conventionally taken in molar units.
